Experimental findings from patent US7820439B2, “In vitro generation of GABAergic neurons from pluripotent stem cells” (Reliance Life Sciences PVT Ltd., priority 2003, dated 2010) are described below.

The subject of this test is neuronal progenitor cells derived from murine ES cells. The experiment in a line: Differentiation of neuronal progenitor cells into GABAergic neurons in differentiation media containing Ara-C. It counts as cell-based. The protocol:
The expanded neuronal progenitor cells were differentiated by culturing the cells in a differentiation media containing Neurobasal A medium (Gibco), FCS (10-20%) (HYCLONE), and B27 supplement (2-10%) (Gibco), but no β-FGF. Additionally, the differentiation media contained factors to enhance GABAergic neuron yield, preferably Ara-C (Sigma Chemical Co. USA). […] After 3 days of culture in the differentiation media containing Ara-C, the cells were grown in the same media without Ara-C for 8, 12, or 16 days. When the neuronal progenitor cells were cultured in differentiation media containing Ara-C for 3 days, and the cells were then grown in differentiation media without Ara-C for 16 days, at least about 60% of the neuronal progenitor cells differentiated into GABAergic neurons (FIG. 6).
The differentiated neuronal cell types generated according to the present disclosure were evaluated both by the overall morphology of the cells, as well as the phenotypes identified by immunoflourescence. […]
The cells were then incubated overnight at 4° C. with a primary antibody (antibody dilution was made in 1% BSA). […] The chamber slides were observed under fluorescence microscope to evaluate the immunopositive cells in the different stages of differentiation. […]

Consider cytosine β-d-Arabino furanoside [Ara-C], for which, where the note is “Ara-C 20 ug/ml in differentiation media”, the “percentage of GABAergic neurons in the neuronal population derived from murine ES cells” value is on record as “increased the percentage of GABAergic neurons”. In addition, the “neuronal progenitor cells differentiated into GABAergic neurons” value (differentiation media containing Ara-C for 3 days, then without Ara-C for 16 days (FIG. 6)) was “at least 60%”.
